# Measured values as given in patent US8492341B2, “Amyloid-β binding peptides” (Alzyme Pty Ltd., priority 2006, dated 2013).
# Assays:
# [1] = test system: PS/APP transgenic mice; assay: Efficacy study: i.c.v. infusion in PS/APP transgenic mice, Aβ and GFAP immunohistochemistry; format: in vivo; conditions: 6-month-old PS/APP mice, 28 days, vs Vehicle (PBS)
# Text: Peptide analogue MP2 [Ac-Asn-Arg-Thr-Pro-Gln-Met-Leu-Lys-Arg-NH2 (SEQ ID NO:2)] was delivered directly into the brain by i.c.v administration. For i.c.v infusion into the cerebrospinal fluid, a cannula is inserted into the right lateral ventricle of the brain (antero-posterior: −0.3 mm; medium-line: −1 mm; dorso-ventral: −2.2 mm) of 3-month and 6-month old PS/APP transgenic mice using a Kopf (Tujunga, Calif.) stereotaxic instrument (Permanne et al., 2002 “Reduction of amyloid load and cerebral damage in a transgenic mouse model of Alzheimer's disease by treatment with a β-sheet breaker peptide” FASEB J.).
# The coordinates are measured from the Bregma and the surface of the skull according to the brain atlas of Franklin and Paxinos (The Mouse Brain in Stereotaxic Coordinates (1997) Academic Press, San Diego). […]
# For immunohistochemistry, tissue sections are cut and series of sections processed for peroxidase immunohistochemistry with antibodies specific for beta amyloid (1-42) and astrocytic activation (GFAP). […] Reactive astrocytes (forming a halo around Aβ deposits) were detected using antibody GFAP (1:500 dilution in DAKO antibody diluent; polyclonal, DAKO); Aβ detected using affinity purified WO2 antibody (1:10,000 dilution in Tris buffer (pH 7.6); raised against amino acid residues 5-8 of human Aβ, monoclonal). […]
# [2] = molecular target: human Aβ1-42 (Homo sapiens, UniProt P05067); assay: DCF fluorescence assay of H2O2 production (SOD-like activity) by human Aβ1-42; format: biochemical; conditions: P<0.001
# Protocol: The three candidate peptides (15merTNP, 6merPLP and 6merMTM) were examined to determine whether they could attenuate Aβ's SOD-like activity in vitro. A DCF fluorescence assay was used to assess the efficacy of these peptides on altering the production of physiological (brain) concentrations (200 nM) of human Aβ1-42.
# Aβ species were prepared and the assay run as described previously (i.e. Aβ1-42 at 200 nM and Copper and Dopamine concentrations remain unchanged). Peptide analogue MP2 (SEQ ID NO:2) was added to Aβ1-42+Cu solutions at ratios ranging from 0.005:1 to 10.0:1 (i.e. a ration of 0.005:1 would contain 1 nM of respective peptide). The peptide was dissolved in PBS pH7.5. The effect of MP2 on H2O2 production by human Aβ1-42 was determined in triplicate in three separate experiments (i.e. n=9) for doses ranging from 100 to 2000 nM (FIG. 1). These were compared against the level of H2O2 produced by human Aβ1-42 [test peptide analogue MP2+positive control peptide 15merTNP; three experiments done in triplicate, […]]. All data are presented as means±SEM.
# For all assays run, the 15merTNP peptide (SEQ ID NO: 3), was included as a positive control for the assay and for comparing its activity with that of the modelled peptide analogue MP2. The effect of 15merTNP (200 nM) on H2O2 production by human Aβ1-42, was determined in triplicate in each of the 12 DCF assays (i.e. n=36) performed in this study.
# [3] = test system: M17 Neuroblastoma cells; assay: MTS cell viability assay, cell death induced by human Aβ1-42 (40 μM); format: cell-based
# Protocol: M17 Neuroblastoma cells were seeded in a 48 well plate at a density of 50,000 cells per well. The plate was incubated for 24 hours at 37° C. in media (OPTI-MEM) containing 10% FCS. The next day the cells were treated with human Aβ1-42 (40 μM) in the presence or absence of the peptides 15merTNP or peptide analogue MP2 (FIG. 2). The peptides were provided at concentrations ranging from 20-400 μM prepared in Neuro basal media containing B27 supplement without antioxidants. Following incubation (4 days at 37° C.), cell viability was assessed using the CellTiter 96® AQueous One Solution cell proliferation assay (MTS; Promega, Wis., USA) as per manufactures instructions. Briefly, 200 μl of MTS reagent (1/10 dilution) was added directly to the culture wells and the plate incubated for 3 hours at 37° C. Following incubation, 150 μl of the solution was transferred to a 96 well plate and the absorbance is determined spectrophotometrically at 490 nm.
# Similar to the MTT assay, the MTS assay is a colorimetric method for determining the number of viable cells in proliferation or cytotoxicity assays. The principle of the MTS assay is the same as the MTT assay, except for the tetrazolium compound that is bio-reduced by the mitochondria of the cells, forming a coloured formazan product that is soluble (rather than insoluble for the MTT assay) in tissue culture medium. This conversion is accomplished by NADPH or NADH produced by dehydrogenase enzymes in metabolically active cells: Berridge M V. And Tan A. S. (1993) Characterisation of the cellular reduction of 3-(4,5-dimethylthiazol-2-yl)-2,5-diphenyltetrazolium bromide (MTT): Subcellular localisation, substrate dependence and involvement of mitochondrial electron transport in MTT reduction. Arch. Biochem. Biophys. 303, 474-82.
# The effect of human Aβ1-42 (40 μM) on cell viability was determined in triplicate in each of the 10 MTS assays (i.e. n=30) performed in this study. All data are presented as means±SEM.
# The effect of peptide analogue MP2 to protect against human Aβ42-induced toxicity was then determined using the MTS assay in triplicate in two separate experiments for all doses (i.e. n=6), unless otherwise specified. The effectiveness of MP2 was compared against the 15merTNP.
# human Aβ1-42, sequence (P05067 672-713): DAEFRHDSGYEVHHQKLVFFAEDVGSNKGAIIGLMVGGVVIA
substance,measurement,setting,value
"Ac-NRTPQMLKR-NH2 [MP2, Ac-Asn-Arg-Thr-Pro-Gln-Met-Leu-Lys-Arg-NH2]",reduction in the estimated total number of Aβ immunoreactive deposits,[1]; 60 nmoles daily i.c.v.,26.4%
same,total number of GFAP immunoreactive halos,[1]; 60 nmoles/day i.c.v.,"reduction in the total number of GFAP immunoreactive halos, although significance was only reached in the middle and posterior cortical regions"
same,H2O2 levels produced by human Aβ1-42,[2]; 100 and 200 nM peptide,significant reduction
same,H2O2 levels produced by human Aβ1-42,[2]; peptide doses ≧1000 nM,significantly increased
same,maximum reduction in cell toxicity associated with human Aβ1-42,[3]; Aβ1-42 40 μM,around 15%
same,effect on cell death associated with human Aβ1-42,"[3]; peptide concentration ≧200 μM, P<0.05",significantly reduced cell death
same,effect on cell death associated with human Aβ1-42,[3]; peptide concentrations ≦80 μM,no effect
